Target: Sigma 1 receptor
Test: competitive radioligand binding assay

9,13-epoxy-6-hydroxylabdan-15,16-olide [compound 11]
Ki: 2.9 µM
